The values that follow come from article PMC3705312, “Extracts, Anthocyanins and Procyanidins from Aronia melanocarpa as Radical Scavengers and Enzyme Inhibitors” (Nutrients, 2013).

Test [1] in a line: Scavenging of the diphenylpicrylhydrazyl (DPPH) radical. The conditions noted are these: average ± SD; for DPPH % scavenging at 10.4 µg/mL: sample concentration 10.4 µg/mL, 5 min, values marked ^; for DPPH IC50 (concentration to give 50% scavenging): 5 min reaction, A517, values marked #, triplicate. (In general: The DPPH test is a chemical assay of radical scavenging.)
Method: Scavenging activity towards the DPPH radical was carried out as previously described [18]. Briefly, to 2.95 mL of a methanolic solution of DPPH (A517 1.0), 50 µL of the test compound (dissolved in DMSO or MeOH) was added. The mixture was stirred, and the decrease in UV absorbance at 517 nm was measured over a period of 5 min. Percent radical scavenging was calculated as 100 × (Astart − Aend)/(Astart), where Astart is the absorbance before addition of the test compound and Aend is the absorbance value after 5 min of reaction time. Values were corrected for absorbance of the test substances.
For test [2], the target named is T1, 15-LO from soybeans (Glycine max, UniProt P08170).
T1 construct: purchased Sigma-Aldrich
T1 sequence (P08170 1-839): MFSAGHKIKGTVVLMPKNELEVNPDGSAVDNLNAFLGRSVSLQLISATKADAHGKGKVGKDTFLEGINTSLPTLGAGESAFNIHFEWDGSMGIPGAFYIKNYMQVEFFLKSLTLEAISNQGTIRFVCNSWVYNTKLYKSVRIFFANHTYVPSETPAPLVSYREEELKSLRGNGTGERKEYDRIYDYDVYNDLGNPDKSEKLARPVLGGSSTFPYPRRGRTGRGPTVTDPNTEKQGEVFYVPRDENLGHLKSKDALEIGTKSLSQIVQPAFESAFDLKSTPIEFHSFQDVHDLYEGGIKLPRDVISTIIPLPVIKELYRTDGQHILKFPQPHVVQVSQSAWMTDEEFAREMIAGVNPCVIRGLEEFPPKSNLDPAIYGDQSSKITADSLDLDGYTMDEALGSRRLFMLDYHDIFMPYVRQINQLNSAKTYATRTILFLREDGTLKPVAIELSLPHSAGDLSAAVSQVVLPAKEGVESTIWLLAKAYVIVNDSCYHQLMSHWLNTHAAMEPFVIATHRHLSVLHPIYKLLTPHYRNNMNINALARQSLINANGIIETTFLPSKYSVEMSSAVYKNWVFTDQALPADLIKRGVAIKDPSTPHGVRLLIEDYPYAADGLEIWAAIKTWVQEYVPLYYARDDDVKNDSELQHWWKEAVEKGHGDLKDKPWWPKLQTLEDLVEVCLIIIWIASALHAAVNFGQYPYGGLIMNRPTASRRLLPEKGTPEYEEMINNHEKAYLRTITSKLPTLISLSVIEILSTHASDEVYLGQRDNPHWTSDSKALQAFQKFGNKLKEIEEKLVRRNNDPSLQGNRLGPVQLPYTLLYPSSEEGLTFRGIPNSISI
Nature of the test: Inhibition of 15-lipoxygenase (15-LO). As to conditions: borate buffer pH 9.00, average ± SD, triplicate. The test is classed as biochemical, soybean.

Test [3] addresses T2, XO from bovine milk (Bos taurus, UniProt P80457).
T2 construct: purchased Sigma-Aldrich; host or cells: bovine milk
In words: Inhibition of xanthine oxidase (XO), hypoxanthine as substrate. As to conditions: average ± SD. The test is classed as biochemical. As for the experimental part: (§1) Procyanidin B2 and B5 reference compounds were obtained from Plant Polyphenols LLC (Boyce, LA, USA). All other reagents were of the highest purity available.
The XO inhibitory activity with hypoxanthine as the substrate was measured spectrophotometrically based on the procedure of Noro et al., with some modifications. The assay mixture consisting of 50 µL of test compound (dissolved in DMSO or MeOH) or (for blanks) DMSO or MeOH alone, 1.85 mL of 50 mM sodium-potassium phosphate buffer (pH = 7.5) and 100 µL of enzyme solution (1.8 U/mL in 50 mM sodium-potassium phosphate buffer, pH = 7.5) was prepared immediately before use. Substrate solution (1.0 mL, 20 µg/mL hypoxanthine in distilled water) was added. The mixture was stirred, and the increase in absorbance at 290 nm was measured over a period of 5 min. Percent enzyme inhibition was calculated as 100 × [(∆A1 − ∆A2)/∆A1], where ∆A1 and ∆A2 are values for the increase in A290 for the sample without test substance and with test substance, respectively.

For test [4], the target named is T3, α-glucosidase from baker's yeast (Saccharomyces cerevisiae, UniProt P53341).
T3 construct: purchased Sigma-Aldrich
T3 sequence (P53341 whole entry): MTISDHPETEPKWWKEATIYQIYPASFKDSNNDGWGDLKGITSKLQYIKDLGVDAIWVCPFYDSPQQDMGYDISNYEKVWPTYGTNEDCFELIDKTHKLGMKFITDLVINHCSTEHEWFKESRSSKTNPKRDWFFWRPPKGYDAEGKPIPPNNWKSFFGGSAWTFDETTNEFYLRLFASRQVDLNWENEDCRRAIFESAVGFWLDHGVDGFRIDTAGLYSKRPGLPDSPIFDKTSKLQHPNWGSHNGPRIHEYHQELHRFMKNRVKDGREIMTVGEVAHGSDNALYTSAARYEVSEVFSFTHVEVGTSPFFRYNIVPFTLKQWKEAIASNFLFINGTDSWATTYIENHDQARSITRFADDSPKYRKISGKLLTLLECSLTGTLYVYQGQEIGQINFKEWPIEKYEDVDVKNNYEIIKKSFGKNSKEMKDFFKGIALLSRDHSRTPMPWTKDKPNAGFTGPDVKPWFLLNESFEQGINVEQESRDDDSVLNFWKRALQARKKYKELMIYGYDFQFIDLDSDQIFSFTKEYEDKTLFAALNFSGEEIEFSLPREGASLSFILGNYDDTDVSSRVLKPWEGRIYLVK
In words: biochemical. The conditions noted are these: 15 min, pH 7.0, average ± SD, triplicate. As for the experimental part:
as §1
The α-glucosidase inhibitory activity was determined by a slight modification of the procedure reported by Matsui et al.. The enzyme solution was set at 800 mU/mL of α-glucosidase in a 50 mM phosphate buffer (pH = 7.0) containing 100 mM sodium chloride. For each assay, 20 µL of the test solution in DMSO or MeOH and 80 µL of the enzyme solution were preincubated at 37 °C for 5 min. The reaction was started by adding 1.9 mL of substrate solution (0.7 mM PNP-G in the buffer), and the solution was then incubated at 37 °C for 15 min. After the reaction had been stopped by adding 2.0 mL of a 0.5 M Tris solution, the absorbance of PNP released from PNP-G at 400 nm was measured. Percent enzyme inhibition was calculated as 100 × (AB − AS)/(AB), where AB and AS represent the absorbance of the blank and sample, respectively.

[5] abbreviates: linoleic acid 134 µM, read-out: 15-Lipoxygenase IC50 (converted).
Setting [6] is: 37 °C, read-out: α-Glucosidase IC50 (converted).
[7] abbreviates: read-out: Xanthine oxidase % inhibition at a concentration of 42 µg/mL, 42 µg/mL.

Where two headings read alike, the source gives them in different places.

T2 sequence (P80457 whole entry): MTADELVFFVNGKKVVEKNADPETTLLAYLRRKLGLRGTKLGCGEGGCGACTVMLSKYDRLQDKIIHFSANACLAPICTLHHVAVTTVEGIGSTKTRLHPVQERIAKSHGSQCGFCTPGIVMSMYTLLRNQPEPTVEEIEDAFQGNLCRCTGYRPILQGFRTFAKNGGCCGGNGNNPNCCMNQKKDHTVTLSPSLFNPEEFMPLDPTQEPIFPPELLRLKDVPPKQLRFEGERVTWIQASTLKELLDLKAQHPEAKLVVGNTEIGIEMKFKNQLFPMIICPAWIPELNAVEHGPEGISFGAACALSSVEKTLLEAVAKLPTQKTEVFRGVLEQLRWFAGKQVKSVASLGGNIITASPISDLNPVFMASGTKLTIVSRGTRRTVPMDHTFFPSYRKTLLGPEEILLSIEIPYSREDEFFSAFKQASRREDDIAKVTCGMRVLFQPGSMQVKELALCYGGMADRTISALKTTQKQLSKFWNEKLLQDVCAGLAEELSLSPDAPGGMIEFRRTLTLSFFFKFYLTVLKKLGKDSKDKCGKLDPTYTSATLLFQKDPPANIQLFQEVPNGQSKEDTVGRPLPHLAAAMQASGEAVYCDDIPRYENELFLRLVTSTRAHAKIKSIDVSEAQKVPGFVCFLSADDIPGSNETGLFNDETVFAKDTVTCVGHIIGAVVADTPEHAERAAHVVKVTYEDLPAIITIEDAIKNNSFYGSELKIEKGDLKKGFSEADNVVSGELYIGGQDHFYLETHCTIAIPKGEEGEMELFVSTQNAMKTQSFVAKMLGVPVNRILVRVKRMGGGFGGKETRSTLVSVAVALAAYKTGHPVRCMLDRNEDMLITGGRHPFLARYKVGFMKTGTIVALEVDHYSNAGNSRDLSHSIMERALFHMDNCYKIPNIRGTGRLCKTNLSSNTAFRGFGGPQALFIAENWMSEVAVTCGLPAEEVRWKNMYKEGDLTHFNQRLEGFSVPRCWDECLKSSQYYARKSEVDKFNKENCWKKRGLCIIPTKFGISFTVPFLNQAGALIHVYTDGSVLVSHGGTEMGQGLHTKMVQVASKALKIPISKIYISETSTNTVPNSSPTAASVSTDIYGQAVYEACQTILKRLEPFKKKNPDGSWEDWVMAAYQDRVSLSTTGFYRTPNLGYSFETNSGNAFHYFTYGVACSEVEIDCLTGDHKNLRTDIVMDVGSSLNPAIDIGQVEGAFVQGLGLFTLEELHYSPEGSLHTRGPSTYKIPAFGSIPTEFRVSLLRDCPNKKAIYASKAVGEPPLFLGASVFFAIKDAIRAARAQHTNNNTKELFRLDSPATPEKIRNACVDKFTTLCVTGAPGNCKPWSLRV

In general, IC50 refers to the concentration that inhibits the measured activity by half. Take `OCC1OC(Oc2cc3c(O)cc(O)cc3[o+]c2-c2ccc(O)c(O)c2)C(O)C(O)C1O` (centres unmarked) [Compound 1, cyanidin 3-galactoside]: the “DPPH % scavenging at 10.4 µg/mL” value in test [1] was 39.0 ± 2.9 ^^ %. Also, the IC50 was 159 µM in test [2] (setting [5]) and 3.43 µM in test [4] (setting [6]). Moreover, in test [3] (read-out: Xanthine oxidase % inhibition at a concentration of 17 µg/mL, 17 µg/mL), the inhibition at 17 µg/mL turned out to be 11.9 ± 4.4%.

Consider `OCC1OC(Oc2cc3c(O)cc(O)cc3[o+]c2-c2ccc(O)c(O)c2)C(O)C(O)C1O` (centres unmarked) [Compound 2, cyanidin 3-glucoside], for which, in test [1], the “DPPH % scavenging at 10.4 µg/mL” value is listed as 37.0 ± 0.9 ^^ %. The results for the IC50 in test [2] (setting [5]) and in test [4] (setting [6]) were 163 µM and 1.94 µM, respectively. Besides, the “Xanthine oxidase % inhibition at a concentration of 17 µg/mL” value (from here on “Xanthine oxidase % inhibition”) in test [3] came to 20.9 ± 3.4%.

For the compound `Oc1cc(O)c2cc(OC3OCC(O)C(O)C3O)c(-c3ccc(O)c(O)c3)[o+]c2c1` (centres unmarked) [Compound 3, cyanidin 3-arabinoside], in test [1], the “DPPH % scavenging at 10.4 µg/mL” value is listed as 40.0 ± 0.4 ^^ %. Also, the IC50 in test [2] (setting [5]) was 140 µM; in test [4] (setting [6]), 0.882 µM. Further, in test [3], the “Xanthine oxidase % inhibition” value worked out at 39.1 ± 2.1%.

As for `Oc1cc(O)c2cc(OC3OCC(O)C(O)C3O)c(-c3ccc(O)c(O)c3)[o+]c2c1` (centres unmarked) [Compound 4, cyanidin 3-xyloside], in test [1], the “DPPH % scavenging at 10.4 µg/mL” value is recorded as 25.0 ± 5.0 ^^ %. The IC50 in test [2] (setting [5]) is greater than 198 µM; in test [4] (setting [6]), 13.1 µM. Besides, in test [3], the “Xanthine oxidase % inhibition” value was found to be 11.4 ± 2.8%.

With `Oc1cc(O)c2c(c1)O[C@H](c1ccc(O)c(O)c1)[C@H](O)[C@H]2c1c(O)cc(O)c2c1O[C@H](c1ccc(O)c(O)c1)[C@H](O)C2` [Compound 5, procyanidin B2], the “DPPH IC50 (concentration to give 50% scavenging)” value in test [1] is listed as 4.7 ± 0.3 ^# µg/mL. Also, the IC50 in test [2] (15-Lipoxygenase IC50, linoleic acid 134 µM) was 113 µM; in test [4] (α-Glucosidase IC50, 37 °C), 8.12 µM. In addition, the inhibition at 42 µg/mL in test [3] (42 µg/mL, read-out: Xanthine oxidase % inhibition at a concentration of 42 µg/mL) amounted to 12.7 ± 2.8%.

On to `Oc1cc(O)c2c(c1)O[C@H](c1ccc(O)c(O)c1)[C@H](O)[C@H]2c1c(O)cc2c(c1O)C[C@@H](O)[C@@H](c1ccc(O)c(O)c1)O2` [Compound 6, epi-(4β→6)-epi (B5)], for which the “DPPH IC50 (concentration to give 50% scavenging)” value in test [1] is 5.2 ± 0.1 ^# µg/mL. Moreover, the IC50 was 125 µM in test [2] (setting [5]) and 9.51 µM in test [4] (setting [6]). Also, the inhibition at 42 µg/mL in test [3] (setting [7]) is 6.6 ± 0.7%.

As to `Oc1cc(O)c2c(c1)O[C@H](c1ccc(O)c(O)c1)[C@H](O)[C@H]2c1c(O)cc(O)c2c1O[C@H](c1ccc(O)c(O)c1)[C@H](O)[C@H]2c1c(O)cc(O)c2c1O[C@H](c1ccc(O)c(O)c1)[C@H](O)C2` [Compound 7, epi-(4β→8)-epi-(4β→8)-epi (C1)], the “DPPH IC50 (concentration to give 50% scavenging)” value in test [1] is 3.2 ± 0.1 ^# µg/mL. The IC50 in test [2] (setting [5]) was 66.5 µM; in test [4] (α-Glucosidase IC50, 37 °C), 4.38 µM. Moreover, the inhibition at 42 µg/mL in test [3] (setting [7]) was 15.5 ± 1.5%.

Take `O=c1c(O)c(-c2ccc(O)c(O)c2)oc2cc(O)cc(O)c12` [Quercetin, quercetin, reference compound]: the “DPPH IC50 (concentration to give 50% scavenging)” value in test [1] is reported as 3.0 ± 0.2 ^# µg/mL.
